# From PMC4141478 (Nature communications, 2014)
# Molecular target: T1, Full length EhIP6KA (Entamoeba histolytica, UniProt C4M387)
# T1 sequence (C4M387 1-270): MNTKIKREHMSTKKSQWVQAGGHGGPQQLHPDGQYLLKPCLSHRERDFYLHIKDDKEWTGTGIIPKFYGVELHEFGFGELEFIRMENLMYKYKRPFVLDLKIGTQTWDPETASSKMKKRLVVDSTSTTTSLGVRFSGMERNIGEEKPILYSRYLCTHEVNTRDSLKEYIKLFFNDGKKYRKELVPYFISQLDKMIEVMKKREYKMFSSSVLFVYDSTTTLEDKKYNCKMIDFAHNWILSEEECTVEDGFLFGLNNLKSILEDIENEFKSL
# Assay: NMR of reaction product
# Format: biochemical
# Conditions: 3 mM ATP, 2 mM MgCl2, pH 7.0, 37 then 25 C; product 5-InsP7
smiles,measurement,value
O=P(O)(O)O[C@H]1[C@H](OP(=O)(O)O)[C@@H](OP(=O)(O)O)[C@H](OP(=O)(O)O)[C@@H](OP(=O)(O)O)[C@H]1OP(=O)(O)O [InsP6],NMR of reaction product,"EhIP6KA, like mammalian IP6Ks, converts InsP6 to 5-InsP7"
